This passage reports inhibition in vivo results from patent EP0391644B1, “Aryl-substituted rhodanine derivatives” (ELI LILLY AND COMPANY, priority 1989, dated 1990).

Structures can show the parent of a compound that is named as a salt.

For the assay, the system named is adjuvant-induced arthritis. The assay can be described thus: Developing Adjuvant-Induced Arthritis Test in Rats. In kind it is in vivo, male Lewis-Wistar rats. Particulars: Rattus norvegicus, po, 720 h; 50 mg/kg P.O. x 29; AUC of uninjected paw volumes, Days 16 through 30; read-out: % Inhibition of Uninjected Paw Volume Inflammation.
With `CCN(C)N1CSC(=Cc2cc(C(C)(C)C)c(O)c(C(C)(C)C)c2)C1=O` [Example 40, 5-{[3,5-bis(1,1-dimethylethyl)-4-hydroxyphenyl]methylene}-3-(ethylmethylamino)-4-thiazolidinone], the inhibition in vivo at 50 mg/kg came out at 23%.
To `CNN1CSC(=Cc2cc(C(C)(C)C)c(O)c(C(C)(C)C)c2)C1=O` [Example 47, 5-{[3,5-bis(1,1-dimethylethyl)-4-hydroxyphenyl]methylene}-3-(methylamino)-4-thiazolidinone] belongs 69.3%; to `C=CCN1CSC(=Cc2cc(C(C)(C)C)c(O)c(C(C)(C)C)c2)C1=O` [Example 24, 5-{[3,5-bis(1,1-dimethylethyl)-4-hydroxyphenyl]methylene}-3-(2-propenyl)-4-thiazolidinone], 0%.
As to `CCCCN(C)N1CSC(=Cc2cc(C(C)(C)C)c(O)c(C(C)(C)C)c2)C1=O` [Example 41, 5-{[3,5-bis(1,1-dimethylethyl)-4-hydroxyphenyl]methylene}-3-(butylmethylamino)-4-thiazolidinone], the inhibition in vivo at 50 mg/kg stood at 27%.
To `CC(C)(C)c1cc(C=C2SCN(N3CCOCC3)C2=O)cc(C(C)(C)C)c1O` [Example 45, 5-{[3,5-bis(1,1-dimethylethyl)-4-hydroxyphenyl]methylene}-3-(4-morpholinyl)-4-thiazolidinone] belongs 36%; to `CC(C)(C)c1cc(CC2SC(=S)NC2=O)cc(C(C)(C)C)c1O` (centres unmarked) [Example 8, 5-{[3,5-bis(1,1-dimethylethyl)-4-hydroxyphenyl]methyl}-2-thioxo-4-thiazolidinone], 4%; to `Cc1cc(C=C2SCN(C)C2=O)cc(C)c1O` [Example 68, 5-[(4-hydroxy-3,5-dimethylphenyl)methylene]-3-methyl-4-thiazolidinone], 6.5%.
To `CC(C)(C)c1cc(C=C2SCN(C3CC3)C2=O)cc(C(C)(C)C)c1O` [Example 20, 5-{[3,5-bis(1,1-dimethylethyl)-4-hydroxyphenyl]methylene}-3-cyclopropyl-4-thiazolidinone] belongs 36%.
Then `C#CCN(C)CCN1CSC(=Cc2cc(C(C)(C)C)c(O)c(C(C)(C)C)c2)C1=O` [Example 31, 5-{[3,5-bis(1,1-dimethylethyl)-4-hydroxyphenyl]methylene}-3-[2-(methyl-2-propynylamino)ethyl]-4-thiazolidinone], with 28.9%.
On to `CN(C)N1C(=O)C(=Cc2cc(C(C)(C)C)c(O)c(C(C)(C)C)c2)SC1=S` [Example 19, 5-{[3,5-bis(1,1-dimethylethyl)-4-hydroxyphenyl]methylene}-3-dimethylamino-2-thioxo-4-thiazolidinone], for which the inhibition in vivo at 50 mg/kg amounted to 20.7%.
Then `CC(=O)OCCCc1cc(C=C2SCN(N(C)C)C2=O)cc(CCCOC(C)=O)c1O` [Example 64, 5-{[3,5-bis[3-(acetyloxy)propyl]-4-hydroxyphenyl]methylene}-3-(dimethylamino)-4-thiazolidinone], with 5.5%.
Then `CC(C)(C)c1cc(C=C2SCN(CCNCc3ccccc3)C2=O)cc(C(C)(C)C)c1O` [Example 33, 5-{[3,5-bis(1,1-dimethylethyl)-4-hydroxyphenyl]methylene}-3-{2-[(phenylmethyl)amino]ethyl}-4-thiazolidinone hydrochloride], with 30.1%.
Regarding `CC(=C1SCN(N(C)C)C1=O)c1cc(C(C)(C)C)c(O)c(C(C)(C)C)c1` [Example 46, 5-{1-[3,5-bis(1,1-dimethylethyl)-4-hydroxyphenyl]methylmethylene}-3-(dimethylamino)-4-thiazolidinone], the inhibition in vivo at 50 mg/kg was determined as 9%.
Then `CN1C(=O)C(=Cc2cc(C(C)(C)C)c(O)c(C(C)(C)C)c2)SC1O` (centres unmarked) [Example 71, 5-{[3,5-bis(1,1-dimethylethyl)-4-hydroxyphenyl]methylene}-2-hydroxy-3-methyl-4-thiazolidinone], with 48.2%.
